In patent publication US8895547B2, “Substituted phenyl-oxathiazine derivatives, method for producing them, drugs containing said compounds and the use thereof” (Sanofi, priority 2011, dated 2014):

Biological target: T1, human 11β-HSD1 (Homo sapiens, UniProt P28845)
T1 construct: host or cells: microsome fraction
Assay: Enzymatic 11beta-HSD1 test (SPA-based detection)
Assay type: biochemical
Conditions: human 11β-HSD1 microsome fraction, [1,2-3H]-cortisone, NADPH, 37° C. 1 hour
How it was run: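 Scintillation proximity detection: anti-cortisol antibody on SPA-PVT beads captured tritiated cortisol. The stop mix also contained 0.01 mM SSR110887 and was equilibrated 1 h at room temperature before counting. Cortisol came from [1,2-3H]-cortisone ([…]), turned over by human 11β-HSD1 microsomal protein (0.2 µg) with 0.25 mM NADPH in HEPES buffer, 37 °C, 1 h.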

T1 sequence (P28845 whole entry): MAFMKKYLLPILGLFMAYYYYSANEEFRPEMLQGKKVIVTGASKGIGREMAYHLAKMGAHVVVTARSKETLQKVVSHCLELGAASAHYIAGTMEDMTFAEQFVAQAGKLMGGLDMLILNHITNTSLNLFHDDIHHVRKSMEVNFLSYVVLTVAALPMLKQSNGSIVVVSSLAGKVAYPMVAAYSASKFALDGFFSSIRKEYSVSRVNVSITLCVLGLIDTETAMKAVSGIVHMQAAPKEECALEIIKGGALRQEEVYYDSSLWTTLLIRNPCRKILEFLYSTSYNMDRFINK

| Structure (SMILES) | IC50 [nM] |
| --- | --- |
| CN(C)c1cccc(-c2ccc(C3C(C)(C)OC(N[C@@H](CCO)c4ccccc4F)=NS3(=O)=O)cc2)n1 (stereo partly drawn) [Example 126, (S)-3-{5-[4-(6-Dimethylamino-pyridin-2-yl)-phenyl]-6,6-dimethyl-4,4-dioxo-5,6-dihydro-4H-4lambda6-[1,4,3]oxathiazin-2-ylamino}-3-(2-fluorophenyl)-propan-1-ol] | 19 |
| CC1(C)OC(N[C@@H](CCO)c2ccccc2F)=NS(=O)(=O)C1c1ccc(-c2ccnc(C#N)c2)cc1 (stereo partly shown) [Example 127] | 6 |
| CC1(C)OC(N[C@@H](CCO)c2ccccc2F)=NS(=O)(=O)C1c1ccc(-c2cc[nH]n2)cc1 (stereo partly drawn) [Example 128, (S)-3-{6,6-Dimethyl-4,4-dioxo-5-[4-(1H-pyrazol-3-yl)-phenyl]-5,6-dihydro-4H-4lambda6-[1,4,3]oxathiazin-2-ylamino}-3-(2-fluorophenyl)-propan-1-ol] | 10 |
| CC1(C)OC(N[C@@H](CCO)c2ccccc2F)=NS(=O)(=O)C1c1ccc(CN2CCOCC2)cc1 (stereo partly drawn) [Example 129, (S)-3-[6,6-Dimethyl-5-(4-morpholin-4-ylmethyl-phenyl)-4,4-dioxo-5,6-dihydro-4H-4lambda6-[1,4,3]oxathiazin-2-ylamino]-3-(2-fluorophenyl)-propan-1-ol] | 18 |
| CC1(C)OC(N[C@@H](CCO)c2ccccc2F)=NS(=O)(=O)C1c1ccc(Nc2ncccn2)cc1 (stereo partly drawn) [Example 130, (S)-3-{6,6-Dimethyl-4,4-dioxo-5-[4-(pyrimidin-2-ylamino)-phenyl]-5,6-dihydro-4H-4lambda6-[1,4,3]oxathiazin-2-ylamino}-3-(2-fluorophenyl)-propan-1-ol] | 20 |
| CC1(C)OC(N[C@@H](CCO)c2ccccc2F)=NS(=O)(=O)C1c1ccc(N2CCCC2=O)cc1 (stereo partly drawn) [Example 132, 1-(4-{2-[(S)-1-(2-fluorophenyl)-3-hydroxy-propylamino]-6,6-dimethyl-4,4-dioxo-5,6-dihydro-4H-4lambda6-[1,4,3]oxathiazin-5-yl}-phenyl)-pyrrolidin-2-one] | 14 |
| CN1CCN(c2cnc(-c3ccc(C4C(C)(C)OC(N[C@@H](CCO)c5ccccc5F)=NS4(=O)=O)cc3)cn2)CC1 (stereo partly drawn) [Example 133, (S)-3-{6,6-Dimethyl-5-[4-(4-methyl-3,4,5,6-tetrahydro-2H-[1,2′]bipyrazinyl-5′-yl)-phenyl]-4,4-dioxo-5,6-dihydro-4H-4lambda6-[1,4,3]oxathiazin-2-ylamino}-3-(2-fluorophenyl)-propan-1-ol] | 7 |
| CC1(C)OC(N[C@@H](CCO)c2ccccc2F)=NS(=O)(=O)C1c1ccc(-c2ccccn2)cc1 (stereo partly drawn) [Example 134, (S)-3-[6,6-Dimethyl-4,4-dioxo-5-(4-pyridin-2-yl-phenyl)-5,6-dihydro-4H-4lambda6-[1,4,3]oxathiazin-2-ylamino]-3-(2-fluorophenyl)-propan-1-ol] | 11 |
| CC1(C)OC(N[C@@H](CCO)c2ccccc2F)=NS(=O)(=O)C1c1ccc(N2CCN(CCO)CC2)cc1 (stereo partly shown) [Example 135] | 59 |
| CN1CCN(Cc2ccc(C3C(C)(C)OC(N[C@@H](CCO)c4ccccc4F)=NS3(=O)=O)cc2)CC1 (stereo partly drawn) [Example 136, (S)-3-{6,6-Dimethyl-5-[4-(4-methyl-piperazin-1-ylmethyl)-phenyl]-4,4-dioxo-5,6-dihydro-4H-4lambda6-[1,4,3]oxathiazin-2-ylamino}-3-(2-fluoro-phenyl)-propan-1-ol] | 63 |
| CN1CCN(CCOc2ccc(C3C(C)(C)OC(N[C@@H](CCO)c4ccccc4F)=NS3(=O)=O)cc2)CC1 (stereo partly drawn) [Example 137, (S)-3-(6,6-Dimethyl-5-{4-[2-(4-methyl-piperazin-1-yl)-ethoxy]-phenyl}-4,4-dioxo-5,6-dihydro-4H-4lambda6-[1,4,3]oxathiazin-2-ylamino)-3-(2-fluoro-phenyl)-propan-1-ol] | 70 |
| CC1(C)OC(N[C@@H](CCO)c2ccccc2F)=NS(=O)(=O)C1c1ccc(N2CCN(C(C)(C)C)CC2)cc1 (stereo partly drawn) [Example 138, (S)-3-{5-[4-(4-tert-Butyl-piperazin-1-yl)-phenyl]-dimethyl-4,4-dioxo-5,6-dihydro-4H-4lambda6-[1,4,3]oxathiazin-2-ylamino}-3-(2-fluorophenyl)-propan-1-ol] | 61 |
| COc1ncc(-c2ccc(C3C(C)(C)OC(N[C@@H](CCO)c4ccccc4F)=NS3(=O)=O)cc2)cn1 (stereo partly drawn) [Example 139, (S)-3-(2-fluorophenyl)-3-{5-[4-(2-methoxy-pyrimidin-5-yl)-phenyl]-6,6-dimethyl-4,4-dioxo-5,6-dihydro-4H-4lambda6-[1,4,3]oxathiazin-2-ylamino}-propan-1-ol] | 5 |
| CC1(C)OC(N[C@@H](CCO)c2ccccc2F)=NS(=O)(=O)C1c1ccc(CCN2CCOCC2)cc1 (stereo partly shown) [Example 140] | 69 |
| CC1(C)OC(N[C@@H](CCO)c2ccccc2F)=NS(=O)(=O)C1c1ccc(N2C(=O)c3ccccc3C2=O)cc1 (stereo partly drawn) [Example 141, 2-(4-{2-[(S)-1-(2-fluorophenyl)-3-hydroxy-propylamino]-6,6-dimethyl-4,4-dioxo-5,6-dihydro-4H-4lambda6-[1,4,3]oxathiazin-5-yl}-phenyl)-isoindole-1,3-dione] | 14 |
| CC1(C)OC(N[C@@H](CCO)c2ccccc2F)=NS(=O)(=O)C1c1ccc(NC2CCN(C3CC3)CC2)cc1 (stereo partly drawn) [Example 142, (S)-3-{5-[4-(1-Cyclopropyl-piperidin-4-ylamino)-phenyl]-6,6-dimethyl-4,4-dioxo-5,6-dihydro-4H-4lambda6-[1,4,3]oxathiazin-2-ylamino}-3-(2-fluoro-phenyl)-propan-1-ol] | 64 |
| CC1(C)OC(N[C@@H](CCO)c2ccccc2F)=NS(=O)(=O)C1c1ccc(C2CCN(CCC(F)(F)F)CC2)cc1 (stereo partly drawn) [Example 143, (S)-3-(6,6-Dimethyl-4,4-dioxo-5-{4-[1-(3,3,3-trifluoropropyl)-piperidin-4-yl]-phenyl}-5,6-dihydro-4H-4lambda6-[1,4,3]oxathiazin-2-ylamino)-3-(2-fluorophenyl)-propan-1-ol] | 13 |

Continued, values first:

| IC50 [nM] | Structure (SMILES) |
| --- | --- |
| 10 | CC(=O)c1ccc(C2C(C)(C)OC(N[C@@H](CCO)c3ccccc3F)=NS2(=O)=O)cc1 (stereo partly shown) [Example 144] |
| 5 | CN1CCN(c2ccc(-c3ccc(C4C(C)(C)OC(N[C@@H](CCO)c5ccccc5F)=NS4(=O)=O)cc3)cn2)CC1 (stereo partly drawn) [Example 145, (S)-3-(6,6-Dimethyl-5-{4-[6-(4-methyl-piperazin-1-yl)-pyridin-3-yl]-phenyl}-4,4-dioxo-5,6-dihydro-4H-4lambda6-[1,4,3]oxathiazin-2-ylamino)-3-(2-fluoro-phenyl)-propan-1-ol] |
| 8 | CC1(C)OC(N[C@@H](CCO)c2ccccc2F)=NS(=O)(=O)[C@H]1c1ccc(-c2ccc(C(N)=O)cc2)cc1 [Example 146, 4′-{(S)-2-[(S)-1-(2-fluorophenyl)-3-hydroxy-propylamino]-6,6-dimethyl-4,4-dioxo-5,6-dihydro-4H-4lambda6-[1,4,3]oxathiazin-5-yl}-biphenyl-4-carboxamide] |
| 9 | CC1(C)OC(N[C@@H](CCO)c2ccccc2F)=NS(=O)(=O)[C@@H]1c1ccc(-c2ccc(C(N)=O)cc2)cc1 [Example 147, 4′-{(R)-2-[(S)-1-(2-fluorophenyl)-3-hydroxy-propylamino]-6,6-dimethyl-4,4-dioxo-5,6-dihydro-4H-4lambda6-[1,4,3]oxathiazin-5-yl}-biphenyl-4-carboxamide] |
| 144 | CN1CCN(CCc2ccc(C3C(C)(C)OC(N[C@@H](CCO)c4ccccc4F)=NS3(=O)=O)cc2)CC1 (stereo partly drawn) [Example 148, (S)-3-(6,6-Dimethyl-5-{4-[2-(4-methyl-piperazin-1-yl)-ethyl]-phenyl}-4,4-dioxo-5,6-dihydro-4H-4lambda6-[1,4,3]oxathiazin-2-ylamino)-3-(2-fluoro-phenyl)-propan-1-ol] |
| 4 | CC1(C)OC(N[C@@H](CCO)c2ccccc2F)=NS(=O)(=O)[C@H]1c1ccc(-c2cccc(C(N)=O)c2)cc1 [Example 149, 4′-{(S)-2-[(S)-1-(2-fluorophenyl)-3-hydroxy-propylamino]-6,6-dimethyl-4,4-dioxo-5,6-dihydro-4H-4lambda6-[1,4,3]oxathiazin-5-yl}-biphenyl-3-carboxamide] |
| 3 | CC1(C)OC(N[C@@H](CCO)c2ccccc2F)=NS(=O)(=O)[C@@H]1c1ccc(-c2cccc(C(N)=O)c2)cc1 [Example 150, 4′-{(R)-2-[(S)-1-(2-fluorophenyl)-3-hydroxy-propylamino]-6,6-dimethyl-4,4-dioxo-5,6-dihydro-4H-4lambda6-[1,4,3]oxathiazin-5-yl}-biphenyl-3-carboxamide] |
| 34 | CC1(C)OC(N[C@@H](CCO)c2ccccc2F)=NS(=O)(=O)C1c1ccc(C2CCN(C(C)(C)C)CC2)cc1 (stereo partly drawn) [Example 151, (S)-3-{5-[4-(1-tert-Butyl-piperidin-4-yl)-phenyl]-6,6-dimethyl-4,4-dioxo-5,6-dihydro-4H-4lambda6-[1,4,3]oxathiazin-2-ylamino}-3-(2-fluorophenyl)-propan-1-ol] |
| 26 | CC1(C)OC(N[C@@H](CCO)c2ccccc2F)=NS(=O)(=O)C1c1ccc(C2CCN(C3CC3)CC2)cc1 (stereo partly drawn) [Example 152, (S)-3-{5-[4-(1-Cyclopropyl-piperidin-4-yl)-phenyl]-6,6-dimethyl-4,4-dioxo-5,6-dihydro-4H-4lamda6-[1,4,3]oxathiazin-2-ylamino}-3-(2-fluorophenyl)-propan-1-ol] |
| 48 | CC(C)(O)c1ccc(C2C(C)(C)OC(N[C@@H](CCO)c3ccccc3F)=NS2(=O)=O)cc1 (stereo partly drawn) [Example 153, (S)-3-(2-fluorophenyl)-3-{5-[4-(1-hydroxy-1-methyl-ethyl)-phenyl]-6,6-dimethyl-4,4-dioxo-5,6-dihydro-4H-4lambda6-[1,4,3]oxathiazin-2-ylamino}-propan-1-ol] |
| 13 | CN1CCN(c2ccc(-c3ccc(C4C(C)(C)OC(N[C@@H](CCO)c5ccccc5F)=NS4(=O)=O)cc3)nc2)CC1 (stereo partly drawn) [Example 154, (S)-3-(6,6-Dimethyl-5-{4-[5-(4-methyl-piperazin-1-yl)-pyridin-2-yl]-phenyl}-4,4-dioxo-5,6-dihydro-4H-4lambda6-[1,4,3]oxathiazin-2-ylamino)-3-(2-fluoro-phenyl)-propan-1-ol] |
